Reference: patent EP3133117A1, “WATER-BASED POLYMER SYSTEM FOR LABELING ADHESIVE APPLICATIONS” (Henkel AG & Co. KGaA, priority 2015, dated 2017)
In brackets after ≈: the same amount, converted by molar mass. Where two headings read alike, the source gives them in different places.

Legend:
[1] = Solubility of the organic additives in water; settings: for solubility: water, 25 °C, thermodynamic from solid
Description: For the determination of the solubility of the organic additives described herein, the GC-based method described above in connection with the solubilities of the monomers may be used. […] The method is basically measuring residual amount of CD in a saturated solution after drying.

[2] = cyclodextrins; values taken from Sabadini et al.; 25°C; cited from earlier work

SMILES	solubility [1] [mg/mL]	Solubility in water [2] [g/L]	also measured
CC(=O)OCC(COC(C)=O)OC(C)=O [1,2,3-propanetriol triacetate]	72	–	–
OCCCCO [1,4-butandiol]	–	–	Solubility in water ([1]; additives other than cyclodextrins, 25°C): miscible
CCCCCO [1-pentanol]	22.4 (≈ 254 mM)	–	–
CCCCCCCO [Heptanol]	1.74 (≈ 15 mM)	–	–
OC[C@H]1O[C@@H]2O[C@H]3[C@H](O)[C@@H](O)[C@@H](O[C@H]4[C@H](O)[C@@H](O)[C@@H](O[C@H]5[C@H](O)[C@@H](O)[C@@H](O[C@H]6[C@H](O)[C@@H](O)[C@@H](O[C@H]7[C@H](O)[C@@H](O)[C@@H](O[C@H]1[C@H](O)[C@H]2O)O[C@@H]7CO)O[C@@H]6CO)O[C@@H]5CO)O[C@@H]4CO)O[C@@H]3CO [α-cyclodextrin]	–	129.5 (≈ 133 mM)	–
OC[C@H]1O[C@@H]2O[C@H]3[C@H](O)[C@@H](O)[C@@H](O[C@H]4[C@H](O)[C@@H](O)[C@@H](O[C@H]5[C@H](O)[C@@H](O)[C@@H](O[C@H]6[C@H](O)[C@@H](O)[C@@H](O[C@H]7[C@H](O)[C@@H](O)[C@@H](O[C@H]8[C@H](O)[C@@H](O)[C@@H](O[C@H]9[C@H](O)[C@@H](O)[C@@H](O[C@H]1[C@H](O)[C@H]2O)O[C@@H]9CO)O[C@@H]8CO)O[C@@H]7CO)O[C@@H]6CO)O[C@@H]5CO)O[C@@H]4CO)O[C@@H]3CO [γ-cyclodextrin]	–	249.2 (≈ 192 mM)	–
